Among the data in patent publication US11440907B1 (Merck Patent GmbH, priority 2018, dated 2022) are IC50 and EC50 values, retold here.

Bounds are passed on as bounds.

Holding throughout (assay type): cell-based
Test [1] deals with β-catenin-TCF-mediated reporter transcription activity in Colo 205 cells. Description: Colo 205 reporter assay (TCF/LEF promoter-driven firefly luciferase). The settings on record: Homo sapiens; Colo 205 TCF/LEF luciferase reporter, 5 hours after compound addition, 384 well; read-out: Colo205 IC50.
Test [2] concerns intracellular calcium flux in Colo-205 cells. Briefly: Calcium flux assay (FLIPR Calcium 5 Assay Kit, FLIPR3). Particulars: Homo sapiens, 0.6 h, calcium flux measured over 36 minutes, read-out: Colo 205 Calcium Flux assay 384w Boston Ca assay FLIPR3 Colo EC50. Here is the method: Compounds described herein induced ER stress by causing intracellular calcium flux. Calcium flux was measured in Colo-205 cells using the FLIPR® Calcium 5 Assay Kit according to manufacturer's protocol (Molecular Devices, Cat. #R8186) on a FLIPR3 system (Molecular Devices). Calcium flux is measured over 36 minutes. The Colo-205 calcium flux assay data are summarized in Table 3: A<0.6 μM; 0.6 μM≤B<2.0 μM; 2.0 μM≤C<10.0 μM; D≥10.0 μM.
(Calcium assays in cells follow changes in intracellular calcium, usually with a dye or a luminescent sensor.)

For test [3], the system named is XBP1(u)-luciferase splicing reporter in HepG2 hepatoma cells. Briefly: HepG2 XBP1 reporter assay (XBP1(u)-Luc). Particulars: Homo sapiens, 6 hours after compound addition; for EC50: Table 3, read-out: XBP1-luc HepG2 1 EC50; for IC50: Table 4.
Test [4] has as its system DU4475 (breast cancer cells). Description: Cell viability (ATPLite) in DU4475. Particulars: Homo sapiens, DU-4475, 96 hours. Here is the method:
(§1) Cells were removed from liquid nitrogen storage, thawed and expanded in appropriate growth media. Once expanded, cells were seeded in 384-well tissue culture treated plates at 500 cells per well. After 24 hours, cells were treated for either 0 hours or treated for 96 hours with a testing compound (at the concentrations of 100 nM and 2 uM). At the end of either 0 hours or 96 hours, cell status was analyzed using ATPLite (Perkin Elmer) to assess the biological response of cells to the testing compound.
(In ATP-based viability assays light output follows the ATP content of the culture.)

The test system of test [5] is NCI-H929 (Multiple myeloma cells). Description: Cell viability (ATPLite) in NCI-H929. The settings on record: Homo sapiens, 96 hours. Here is the method:
as §1

As to `Cc1cc(N2CCCOC[C@@H]2c2ccc(NC(=O)C3CC3)cc2Cl)nc(N)n1` (single isomer, unassigned) [I-207], the half-inhibitory concentration (IC50) in test [1] is under 300 nM. Further, the 50% effective concentration (EC50) in test [2] and in test [3] was under 600 nM each time.
For the molecule `Cc1cc(N2CCCOC[C@@H]2c2cc3nccn3cc2Cl)nc(N)n1` (single isomer, unassigned) [I-221, 4-[3-(6-chloroimidazo[1,2-a]pyridin-7-yl)-1,4-oxazepan-4-yl]-6-methyl-pyrimidin-2-amine], in test [1], the IC50 was under 300 nM. Moreover, the concentration for a half-maximal effect (EC50) in test [2] and in test [3] was under 600 nM in each case.
As for `Cc1cc(N2CCCOC[C@@H]2c2ccc(CS(C)(=O)=O)cc2Cl)nc(N)n1` (single isomer, unassigned) [I-224], the IC50 in test [1] was under 300 nM. Further, the EC50 in test [2] and in test [3] was under 600 nM each time.
With `Cc1cc(N2CCCOCC2c2cc3c(cc2Cl)NCC3)nc(N)n1` (centres unmarked) [C-1], the concentration for half-maximal inhibition (IC50) in test [4] is under 1000 nM; in test [5], under 1000 nM; in test [3], under 600 nM.
In the case of `Cc1cc(N2CCCOCC2c2cc(F)c(C)cc2Cl)nc(N)n1` (centres unmarked) [C-2], the half-inhibitory concentration (IC50) in test [4] was in the range of 1000 to 10000 nM; in test [5] it was 1000 to 10000 nM; in test [3], 600 to 2000 nM.
As to `Cc1cc(N2CCCOCC2c2cc(O)c(O)cc2Cl)nc(N)n1` (centres unmarked) [C-22], the IC50 in test [4] and in test [5] was at least 25000 nM in each case.
`Cc1cc(N2CCCOCC2c2cc(F)c(-c3cccnc3)cc2Cl)nc(N)n1` (centres unmarked) [C-33]: the IC50 in test [4] and in test [5] was 1000 to 10000 nM each time.
For `Cc1cc(N2CCCOCC2c2cc3c(cc2Cl)CCN3)nc(N)n1` (centres unmarked) [C-37], the 50% inhibitory concentration (IC50) in test [4] and in test [5] was under 1000 nM throughout.
Regarding `Cc1cc(N2CCCOC[C@H]2c2ccc(S(C)(=O)=O)cc2Cl)nc(N)n1` [C-155], the concentration for half-maximal inhibition (IC50) in test [4] and in test [5] was at least 25000 nM throughout.
For `COc1cc(Cl)ccc1C1CCCCCN1c1cc(C)nc(N)n1` (centres unmarked) [I-20, 4-(2-(4-chloro-2-methoxyphenyl)azepan-1-yl)-6-methylpyrimidin-2-amine], the half-maximal inhibitory concentration (IC50) in test [1] was 300 to 1000 nM. Moreover, the 50% effective concentration (EC50) in test [2] and in test [3] was 600 to 2000 nM each time.
For the molecule `COc1ccc(Cl)cc1C1CCCCCN1c1cc(C)nc(N)n1` (centres unmarked) [I-21, 4-(2-(5-chloro-2-methoxyphenyl)azepan-1-yl)-6-methylpyrimidin-2-amine], in test [1], the IC50 lay in the range of 300 to 1000 nM. Also, the EC50 in test [2] lay in the range of 600 to 2000 nM; in test [3], 2000 to 5000 nM.
For `COc1cc(F)ccc1C1CCCCCN1c1cc(C)nc(N)n1` (centres unmarked) [I-22, 4-(2-(4-fluoro-2-methoxyphenyl)azepan-1-yl)-6-methylpyrimidin-2-amine], the IC50 in test [1] lay in the range of 300 to 1000 nM. Further, the results for the EC50 in test [2] and in test [3] were under 600 nM and 600 to 2000 nM, respectively.
For the molecule `CC(=O)Nc1ccc(Cl)c([C@@H]2COCCCN2c2cc(C)nc(N)n2)c1` [I-92], the IC50 in test [1] is under 300 nM. Also, the EC50 in test [2] and in test [3] was under 600 nM throughout.
`CNC(=O)c1ccc([C@H]2COCCCN2c2cc(C)nc(N)n2)c(Cl)c1` [I-150, (S)-4-(4-(2-amino-6-methylpyrimidin-4-yl)-1,4-oxazepan-3-yl)-3-chloro-N-methylbenzamide]: the IC50 in test [1] was 300 to 1000 nM. The 50% effective concentration (EC50) in test [2] was under 600 nM; in test [3], 2000 to 5000 nM.
`CNC(=O)c1ccc(Cl)c([C@@H]2COCCCN2c2cc(C)nc(N)n2)c1` [I-181]: in test [1], the IC50 is under 300 nM. The EC50 in test [2] and in test [3] was under 600 nM each time.
`CCS(=O)(=O)c1ccc([C@H]2COCCCN2c2cc(C)nc(N)n2)c(Cl)c1` [I-183, 4-(3-(2-chloro-4-(ethylsulfonyl)phenyl)-1,4-oxazepan-4-yl)-6-methylpyrimidin-2-amine]: the IC50 in test [1] lay within 300 to 1000 nM. Also, the EC50 in test [2] and in test [3] was under 600 nM each time.
On to `Cc1cc(N2CCCOC[C@H]2c2ccc(C(N)=O)cc2Cl)nc(N)n1` [I-188], for which the IC50 in test [1] is under 300 nM. Besides, the results for the 50% effective concentration (EC50) in test [2] and in test [3] were under 600 nM and 600 to 2000 nM, respectively.
With `Cc1cc(N2CCCOC[C@@H]2c2ccc(P(C)(C)=O)cc2Cl)nc(N)n1` [I-214, 4-[3-(2-chloro-4-dimethylphosphoryl-phenyl)-1,4-oxazepan-4-yl]-6-methyl-pyrimidin-2-amine], the concentration for half-maximal inhibition (IC50) in test [1] lay within 300 to 1000 nM. The EC50 in test [2] was under 600 nM; in test [3], 2000 to 5000 nM.
For `Cc1cc(N2CCCOC[C@@H]2c2ccc(NC3COC3)cc2Cl)nc(N)n1` [I-215, 4-[(3S)-3-[2-chloro-4-(oxetan-3-ylamino)phenyl]-1,4-oxazepan-4-yl]-6-methyl-pyrimidin-2-amine], the 50% inhibitory concentration (IC50) in test [1] was under 300 nM. Moreover, the EC50 in test [2] and in test [3] was under 600 nM each time.
`Cc1cc(N2CCCOC[C@@H]2c2ccc(N3CCOCC3)cc2Cl)nc(N)n1` [I-216, 4-[(3S)-3-(2-chloro-4-morpholino-phenyl)-1,4-oxazepan-4-yl]-6-methyl-pyrimidin-2-amine]: the half-inhibitory concentration (IC50) in test [1] was under 300 nM. The EC50 in test [2] and in test [3] was under 600 nM each time.
`COC1CN(c2ccc([C@H]3COCCCN3c3cc(C)nc(N)n3)c(Cl)c2)C1` [I-217, 4-[(3S)-3-[2-chloro-4-(3-methoxyazetidin-1-yl)phenyl]-1,4-oxazepan-4-yl]-6-methyl-pyrimidin-2-amine]: the half-maximal inhibitory concentration (IC50) in test [1] is under 300 nM. In addition, the EC50 in test [2] and in test [3] was under 600 nM each time.
In the case of `COC1CCN(c2ccc([C@H]3COCCCN3c3cc(C)nc(N)n3)c(Cl)c2)C1` (stereo partly drawn) [I-218, 4-[(3S)-3-[2-chloro-4-(3-methoxypyrrolidin-1-yl)phenyl]-1,4-oxazepan-4-yl]-6-methyl-pyrimidin-2-amine], the 50% inhibitory concentration (IC50) in test [1] is under 300 nM. Besides, the EC50 in test [2] and in test [3] was under 600 nM in each case.
Take `Cc1cc(N2CCCOC[C@@H]2c2ccc(N3CCC4(CCOC4)C3)cc2Cl)nc(N)n1` (stereo partly drawn) [I-219, 4-[(3S)-3-[2-chloro-4-(2-oxa-7-azaspiro[4.4]nonan-7-yl)phenyl]-1,4-oxazepan-4-yl]-6-methyl-pyrimidin-2-amine]: the concentration for half-maximal inhibition (IC50) in test [1] fell in the range of 300 to 1000 nM. The concentration giving a half-maximal response (EC50) in test [2] and in test [3] was under 600 nM each time.
Take `Cc1cc(N2CCCOC[C@@H]2c2ccc(N3CC4COCC4C3)cc2Cl)nc(N)n1` (stereo partly drawn) [I-220, 4-[(3S)-3-[4-(1,3,3a,4,6,6a-hexahydrofuro[3,4-c]pyrrol-5-yl)-2-chloro-phenyl]-1,4-oxazepan-4-yl]-6-methyl-pyrimidin-2-amine]: in test [1], the IC50 is under 300 nM. In addition, the concentration giving a half-maximal response (EC50) in test [2] and in test [3] was under 600 nM each time.
Take `Cc1cc(N2CCCOCC2c2ccc(S(=O)(=O)C3CCC3)cc2Cl)nc(N)n1` (centres unmarked) [I-222, 4-(3-(2-chloro-4-(cyclobutylsulfonyl)phenyl)-1,4-oxazepan-4-yl)-6-methylpyrimidin-2-amine]: the concentration for half-maximal inhibition (IC50) in test [1] lay within 300 to 1000 nM. The concentration giving a half-maximal response (EC50) is under 600 nM in test [2] and 600 to 2000 nM in test [3].
The corresponding values for `COc1ccc(F)cc1[C@H]1COCCCN1c1cc(C)nc(N)n1` [I-288] are under 300 nM, under 600 nM and 2000 to 5000 nM.
The like results for `Cc1cc(N2CCCOCC2c2cc(Br)ccc2Cl)nc(N)n1` (centres unmarked) [I-295] were, in that order, 300 to 1000 nM, under 600 nM and 600 to 2000 nM.
`CCS(=O)(=O)c1ccc(C2COCCCN2c2cc(C)nc(N)n2)c(Cl)c1` (centres unmarked) [I-297]: the IC50 in test [1] was in the range of 300 to 1000 nM. For the same molecule, the concentration for a half-maximal effect (EC50) in test [2] and in test [3] was under 600 nM in each case.
With `Cc1cc(N2CCCOCC2c2ccc(C(N)=O)cc2Cl)nc(N)n1` (centres unmarked) [I-298], the IC50 in test [1] is under 300 nM. For the same molecule, the results for the EC50 in test [2] and in test [3] were under 600 nM and 2000 to 5000 nM, respectively.
The like results for `C=C(C)c1ccc(C2COCCCN2c2cc(C)nc(N)n2)c(Cl)c1` (centres unmarked) [I-299] were, in that order, 300 to 1000 nM, under 600 nM and 600 to 2000 nM.
Regarding `Cc1cc(N2CCCOCC2c2cc(-n3cccc3)ccc2Cl)nc(N)n1` (centres unmarked) [I-300], in test [1], the 50% inhibitory concentration (IC50) was in the range of 300 to 1000 nM. For the same molecule, the EC50 is under 600 nM in test [2] and 600 to 2000 nM in test [3].
`Cc1cc(N2CCCOCC2c2ccc(NC(=O)C3(O)CC3)cc2Cl)nc(N)n1` (centres unmarked) [I-303]: the IC50 in test [1] lay within 300 to 1000 nM. Moreover, the EC50 in test [2] and in test [3] was under 600 nM in each case.
Consider `Cc1cc(N2CCCOCC2c2cc(N3CCCC3)ccc2Cl)nc(N)n1` (centres unmarked) [I-304], for which the IC50 in test [1] is 300 to 1000 nM. Besides, the values for the concentration giving a half-maximal response (EC50) in test [2] and in test [3] were under 600 nM and 600 to 2000 nM, respectively.
For the molecule `Cc1cc(N2CCCOCC2c2ccc(NC(=O)C3CC3)cc2Cl)nc(N)n1` (centres unmarked) [I-305], in test [1], the IC50 fell in the range of 300 to 1000 nM. Moreover, the 50% effective concentration (EC50) in test [2] and in test [3] was under 600 nM throughout.
In the case of `CCC(=O)Nc1ccc(C2COCCCN2c2cc(C)nc(N)n2)c(Cl)c1` (centres unmarked) [I-306], the IC50 in test [1] fell in the range of 300 to 1000 nM. Besides, the EC50 in test [2] and in test [3] was under 600 nM in each case.
For the molecule `Cc1nc(N)nc2c1-c1c(NC3COC3)ccc(Cl)c1C1COCCCN21` (centres unmarked) [I-309], the IC50 in test [1] is under 300 nM. In addition, the concentration giving a half-maximal response (EC50) in test [2] and in test [3] was under 600 nM throughout.

For orientation: IC50 means the point on the concentration scale where inhibition reaches its midpoint. For orientation: EC50 means the concentration needed to bring the measured effect to its halfway point.
